Results reported in ChEMBL document CHEMBL3880437, “Modulators of the prostacyclin (PGI2) receptor useful for the treatment of disorders related thereto” (2014).
Active and inactive are the calls of the source. No cut-off for these calls is given here.

How the values were obtained:
[1] = Stability of the compound in Cremophor RH40 assessed as observable API assay loss after 4 weeks in glass vial at 50 degC; type: physicochemical; conditions: 672 h
Platelet = assay: Inhibition of ADP-induced platelet aggregation in human platelet rich plasma pre-incubated for 1 min before ADP addition and measured 3 mins post ADP addition by aggregometry; type: functional
[2] = Stability of the compound in Imwitor 742 assessed as observable compound degradation after 4 weeks in glass vial at 50 degC; type: physicochemical; conditions: 672 h
[3] = Stability of the compound in Cremophor RH40 assessed as observable compound degradation after 4 weeks in glass vial at 50 degC; type: physicochemical; conditions: 672 h
[4] = Stability of the compound in TPGS 1000 assessed as observable compound degradation after 4 weeks in glass vial at 50 degC; type: physicochemical; conditions: 672 h
[5] = Stability of the compound in TPGS 1000 assessed as observable API assay loss after 4 weeks in glass vial at 50 degC; type: physicochemical; conditions: 672 h
[6] = Stability of the compound in Imwitor 742 assessed as observable API assay loss after 4 weeks in glass vial at 50 degC; type: physicochemical; conditions: 672 h
Rattus norvegicus [7] = assay: Inhibition of right ventricle hypertrophic response to monocrotaline-induced pulmonary arterial hypertension assessed as ratio of right ventricular weight to left ventricle plus septum in Wistar rat at 30 mg/kg administered through oral gavage twice daily for 21 consecutive days starting 24 hrs after monocrotaline challenge; type: functional, organism-based
[8] = Solubility of the compound in TPGS 1000; type: physicochemical
[9] = Solubility of the compound in Cremophor RH40; type: physicochemical
[10] = Solubility of the compound in Gelucire 50/13; type: physicochemical
[11] = Solubility of the compound in Safflower oil; type: physicochemical
[12] = Solubility of the compound in Gelucire 44/14; type: physicochemical
[13] = Solubility of the compound in corn oil; type: physicochemical
[14] = Solubility of the compound in PEG400; type: physicochemical
[15] = Solubility of the compound in PEG6000; type: physicochemical
[16] = Solubility of the compound in Lauroglycol 90; type: physicochemical
[17] = Solubility of the compound in Labrasol; type: physicochemical
[18] = Solubility of the compound in Imwitor 742; type: physicochemical
Rattus norvegicus [19] = assay: Cmax in Sprague-Dawley rat assessed as 2-(((1r,4r)-4-(((4-Chlorophenyl)(phenyl)carbamoy-loxy)methyl)cyclohexyl)methoxy)acetic acid level at 1.25 mg/kg, po after 2.67 hrs by LC/MS/MS method; type: ADME, organism-based; set-up: dose 1.25 mg/kg, route oral; conditions: in vivo
[20] = Terminal phase half life in Sprague-Dawley rat at 1.25 mg/kg, po after 0.1 to 21 hrs by LC/MS/MS method; type: ADME, organism-based; conditions: in vivo, read-out: beta t1/2 (converted)
[21] = Drug level in bile-duct cannulated male Sprague-Dawley rat treated with sodium 2-(((1r,4r)-4-(((4- Chlorophenyl)(phenyl)carbamoyloxy)methyl)cyclo-hexyl)methoxy)acetate assessed as compound formation in urine at 2 mg/kg, iv; type: ADME, organism-based; conditions: in vivo
[22] = Drug level in bile-duct cannulated male Sprague-Dawley rat treated with sodium 2-(((1r,4r)-4-(((4- Chlorophenyl)(phenyl)carbamoyloxy)methyl)cyclo- hexyl)methoxy)acetate assessed as compound formation at 2 mg/kg, iv; type: ADME, organism-based; conditions: in vivo
[23] = Drug level in bile-duct cannulated male Sprague-Dawley rat treated with sodium 2-(((1r,4r)-4-(((4- Chlorophenyl)(phenyl)carbamoyloxy)methyl)cyclo- hexyl)methoxy)acetate assessed as compound formation in bile at 2 mg/kg, iv; type: ADME, organism-based; conditions: in vivo
Rattus norvegicus [24] = assay: Tmax in Sprague-Dawley rat assessed as 2-(((1r,4r)-4-(((4-Chlorophenyl)(phenyl)carbamoy-loxy)methyl)cyclohexyl)methoxy)acetic acid level at 10 mg/kg, po by LC/MS/MS method; type: ADME, organism-based; conditions: in vivo
Rattus norvegicus [25] = assay: Tmax in Sprague-Dawley rat assessed as 2-(((1r,4r)-4-(((4-Chlorophenyl)(phenyl)carbamoy-loxy)methyl)cyclohexyl)methoxy)acetic acid level at 1.25 mg/kg, po by LC/MS/MS method; type: ADME, organism-based; conditions: in vivo
[26] = Terminal phase half life in Sprague-Dawley rat assessed as 2-(((1r,4r)-4-(((4-Chlorophenyl)(phenyl)carbamoy-loxy)methyl)cyclohexyl)methoxy)acetic acid level at 1.25 mg/kg, po after 0.1 to 21 hrs by LC/MS/MS method; type: ADME, organism-based; conditions: in vivo
Rattus norvegicus [27] = assay: AUC(last) in Sprague-Dawley rat assessed as 2-(((1r,4r)-4-(((4-Chlorophenyl)(phenyl)carbamoy-loxy)methyl)cyclohexyl)methoxy)acetic acid level at 1.25 mg/kg, po after 0.1 to 21 hrs by LC/MS/MS method; type: ADME, organism-based; set-up: dose 1.25 mg/kg, route oral, time 0 - last; conditions: in vivo
Prostacyclin receptor = Prostacyclin receptor (Homo sapiens, UniProt P43119); assay: Agonist activity at human recombinant prostacyclin receptor expressed in CHO-K1 cells assessed as induction of cAMP accumulation incubated for 1 hr by HTRF assay; type: functional, cell-based
Sequence of Prostacyclin receptor (P43119 whole entry): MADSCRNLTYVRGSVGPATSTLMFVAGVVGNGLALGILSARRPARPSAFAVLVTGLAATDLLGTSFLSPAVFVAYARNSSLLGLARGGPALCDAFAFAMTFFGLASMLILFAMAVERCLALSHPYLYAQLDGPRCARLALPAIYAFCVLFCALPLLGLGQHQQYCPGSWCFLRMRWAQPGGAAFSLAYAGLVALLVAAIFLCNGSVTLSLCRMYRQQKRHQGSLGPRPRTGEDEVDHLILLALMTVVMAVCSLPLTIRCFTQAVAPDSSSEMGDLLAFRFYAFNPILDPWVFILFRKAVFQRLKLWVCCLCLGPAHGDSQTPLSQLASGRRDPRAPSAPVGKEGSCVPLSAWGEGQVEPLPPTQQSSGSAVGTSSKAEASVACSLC

IC50 (Platelet) [nM]	EC50 (Prostacyclin receptor) [nM]	Structure (SMILES)	further results
10.5 to 1590	–	O=C(O)COC[C@H]1CC[C@H](COC(=O)N(c2ccccc2)c2ccc(Cl)cc2)CC1 [listing 1 of 2 here]	Stability [1]: Stable; Stability [2]: Stable; Stability [3]: Stable; Stability [4]: Stable; Stability [5]: Stable; Stability [6]: Stable
10.5 to 1590	–	O=C(O)COC[C@H]1CC[C@H](COC(=O)N(c2ccccc2)c2cccc(F)c2)CC1	Activity (Rattus norvegicus [7]): Active
–	–	O=C([O-])COC[C@H]1CC[C@H](COC(=O)N(c2ccccc2)c2ccc(Cl)cc2)CC1.[Na+]	solubility [8]: 2550 µg/mL; solubility [9]: 7820 µg/mL; solubility [10]: < 10000 µg/mL; solubility [11]: < 100 µg/mL; solubility [12]: 1610 µg/mL; solubility [13]: < 100 µg/mL; solubility [14]: 4850 µg/mL; solubility [15]: < 10000 µg/mL; solubility [16]: 260 µg/mL; solubility [17]: 12980 µg/mL; solubility [18]: 16200 µg/mL
10.5 to 1590	–	O=C(COC[C@H]1CC[C@H](COC(=O)N(c2ccccc2)c2ccc(Cl)cc2)CC1)NCCS(=O)(=O)O	Cmax (Rattus norvegicus [19]): 214 ng/mL; half-life [20]: 3.51 h; Drug metabolism [21]: Metabolite_Notdetected; Drug metabolism [22]: Metabolite_Detected; Drug metabolism [23]: Metabolite_Detected; Tmax (Rattus norvegicus [24]): 1.5 h; Tmax (Rattus norvegicus [25]): 2.67 h; beta t1/2 [26]: 3.24 h; AUClast (Rattus norvegicus [27]): 935 ng·h/mL
–	–	O=C(O)COC[C@H]1CC[C@H](COC(=O)N(c2ccccc2)c2ccc(Cl)cc2)CC1 [listing 2 of 2 here]	Activity (Rattus norvegicus [7]): Active
10.5 to 1590	2.7 to 2650	COc1cccc(N(C(=O)NC[C@H]2CC[C@H](COCC(=O)O)CC2)c2ccccc2)c1F	–
10.5 to 1590	2.7 to 2650	Cc1ccc(N(C(=O)NC[C@H]2CC[C@H](COCC(=O)O)CC2)c2ccc(C)cc2)cc1	–
10.5 to 1590	2.7 to 2650	O=C(O)COC[C@H]1CC[C@H](COC(=O)N(c2cccc(F)c2)c2cccc(OC(F)(F)F)c2)CC1	–
10.5 to 1590	2.7 to 2650	O=C(O)COC[C@H]1CC[C@H](CNC(=O)N(c2ccccc2)c2cccc(Cl)c2F)CC1	–
10.5 to 1590	2.7 to 2650	O=C(O)COC[C@H]1CC[C@H](COC(=O)N(c2cccc(F)c2)c2cc(F)cc(F)c2)CC1	–
10.5 to 1590	2.7 to 2650	O=C(O)COC[C@H]1CC[C@H](COC(=O)N(c2ccc(F)cc2)c2cccc(Cl)c2)CC1	–
10.5 to 1590	2.7 to 2650	Cc1ccc(N(C(=O)OC[C@H]2CC[C@H](COCC(=O)O)CC2)c2ccc(F)cc2)s1	–
10.5 to 1590	2.7 to 2650	O=C(O)COC[C@H]1CC[C@H](COC(=O)N(c2cccc(F)c2)c2ccc(Cl)c(F)c2)CC1	–
10.5 to 1590	2.7 to 2650	O=C(O)COC[C@H]1CC[C@H](COC(=O)N(c2ccc(Cl)cc2)c2cccc(F)c2)CC1	–
10.5 to 1590	2.7 to 2650	O=C(O)COC[C@H]1CC[C@H](COC(=O)N(c2cccc(F)c2)c2cccc(F)c2)CC1	–
10.5 to 1590	2.7 to 2650	O=C(O)COC[C@H]1CC[C@H](COC(=O)N(c2ccccc2)c2cc(F)cc(F)c2)CC1	–
10.5 to 1590	2.7 to 2650	COc1cccc(N(C(=O)NC[C@H]2CC[C@H](COCC(=O)O)CC2)c2ccccc2)c1	–
10.5 to 1590	2.7 to 2650	Cc1ccc(N(C(=O)OC[C@H]2CC[C@H](COCC(=O)O)CC2)c2ccccc2)cc1	–
10.5 to 1590	2.7 to 2650	O=C(O)COC[C@H]1CC[C@H](COC(=O)N(c2cccc(F)c2)c2cnccn2)CC1	–
10.5 to 1590	2.7 to 2650	Cc1ccc(N(C(=O)OC[C@H]2CC[C@H](COCC(=O)O)CC2)c2cccc(F)c2)cc1	–
10.5 to 1590	2.7 to 2650	CCOc1ccc(N(C(=O)OC[C@H]2CC[C@H](COCC(=O)O)CC2)c2ccc(F)cc2)cc1	–
10.5 to 1590	2.7 to 2650	CN(C(=O)NC[C@H]1CC[C@H](COCC(=O)O)CC1)C(c1ccccc1)c1ccccc1	–
